Test results taken from PubChem BioAssay AID743267 (Broad Institute, 2014).

Test system: human bronchial epithelial cells, CFTR corrector, plate reader
Assay: CFTR ΔF508 corrector activity in bronchial cells, dose response, human bronchial epithelial cells, plate reader, cherry-pick, two tests (AID 743267)
[1] = measured here: test 2 replicate run
[2] = measured here: test 1 replicate run

SMILES	AC50 [1]	AC50 [2]
Cc1ccc(CNC(=O)c2ccc3c(=O)c(O)c(-c4ccc(C)cc4)[nH]c3c2)cc1	4.24 µM	
CC(=O)Nc1cccc(-c2ccnc3c2CC(C)(C(=O)NCc2cccs2)O3)c1 (centres undefined)	3.3 µM	
CC(C)(C)c1ccc(OCC(=O)Nc2ccc3c4c(cccc24)C(=O)NC3=O)cc1	18.4 µM	
COc1ccccc1N1CC(C(=O)Nc2ccc(S(=O)(=O)N3CCCC3)cc2)CC1=O (centres undefined)	10.6 µM	
COC(=O)C1=CN(c2ccc(OC)cc2OC)C(N)=C(C#N)C1c1ccccc1F (centres undefined)	1.23 µM	
COc1ccc(COc2cc(-c3cccc(OC)c3)nc3ccc(NC(=O)c4ccc(OC)cc4)cc23)cc1	1.89 µM	
COc1ccc(S(=O)(=O)N(C(=O)C(C)C)c2ccc3oc(=O)sc3c2)cc1	7.6 µM	
CN[C@H]1CCc2cc(OC)c(OC)c(OC)c2-c2ccc(N(C)CC(OC)OC)c(=O)cc21	3.25 µM	
CCOC(=O)N1CCC(NC(=O)c2ccc3c(c2)N=C(C)c2c(C)ccc(C)c2S3)CC1	1.67 µM	
Cc1cc(C)c2nc(Cl)c(CN(Cc3ccco3)C(=O)Nc3ccccc3C)cc2c1	2.87 µM	
CCc1c(C)nc2ncnn2c1NCCc1ccc(OC)cc1	34.6 µM	
COc1ccc2[nH]c(C(=O)N/N=C/c3ccc(O)cc3O)cc2c1	4.83 µM	
O=C(N/N=C/c1cccs1)c1cccc(NC(=O)c2ccccc2Cl)c1	0.985 µM	
CNC(=O)C1CC(=O)N(c2ccc(OCC(=O)Nc3ccccc3)cc2)C1 (centres undefined)	> 50 µM	
COc1ccc2c(c1)sc(N)[n+]2Cc1cc(C)cc2cccnc12	1.04 µM	
COC(=O)C[C@@H]1CC[C@@H]2[C@H](COc3ccc(NC(=O)c4cc(C)on4)cc3C(=O)N2C)O1		3.67 µM
COc1ccc(OC)c(C2CC(c3ccccc3)=NN2C(=S)Nc2ccccc2)c1 (centres undefined)	8.44 µM	
COc1ccc2[nH]c(C(=O)N/N=C/c3ccc(OC)c(O)c3)cc2c1	0.85 µM	
CCC1=Nc2cc(C(=O)NCc3cccnc3)ccc2Sc2ccc(C)cc21	6.64 µM	
COc1ccc(-c2ccc(OC)c(OC)c2OC)cc1	3.92 µM	
COc1ccc(N2CCc3c(C)nc4c(OC)cc(OC)cc4c32)cc1	> 50 µM	
COc1ccc(S(=O)(=O)N2CCN(CCOc3ccccc3Cl)CC2)cc1OC	38.7 µM	
O=Cc1ccccc1OCc1ccc2c(c1)OCO2	14.5 µM	
COc1ccc(-c2cc(C(F)F)n3ncc(C(=O)N4CCc5ccccc54)c3n2)cc1	16.1 µM	
COc1cccc(S(=O)(=O)N2C[C@@H]3N[C@H](C2)C3c2ccc(-c3cccc(C)c3)cc2)c1 (some centres undefined)		16 µM
Cc1cc(Cl)cc(C)c1OCCn1ccnc1	4.68 µM	
COc1cc(C(=O)OCCc2cc3ccccc3c(=O)o2)cc(OC)c1OC	1.59 µM	

SMILES	AC50 [1]	AC50 [2]
COc1cc(-c2nccc3cc4c(cc23)OCO4)cc(OC)c1OC	6.02 µM	
O=C(NCCOc1ccccc1F)c1cc([N+](=O)[O-])ccc1N1CCOCC1	5.95 µM	
c1ccc2nc(N3CCNCC3)ccc2c1	> 50 µM	
CCC(=O)NC(c1ccc(C)cc1)c1ccc2cccnc2c1O (centres undefined)	> 50 µM	
C=CCn1c(SCC(=O)N(C)C2CCS(=O)(=O)C2)nc2ccccc2c1=O (centres undefined)	26.7 µM	
CC(=Nc1ccccc1O)c1sc2ccccc2c1O	11.8 µM	
CCN(CC)c1ccc2c(cc1=O)[C@@H](NC)CCc1cc(OC)c(OC)c(OC)c1-2	1.31 µM	
C=CC(C)(C)c1[nH]cnc1/C=C1\NC(=O)C(C(C)C)NC1=O (centres undefined)	40.2 µM	
CCCn1c(CN2CCN(C(=O)OCC)CC2)nc2cc(NC(=O)CC)ccc21	4.34 µM	
CC1(C(=O)NCc2ccccc2)Cc2c(-c3ccc(C(N)=O)cc3)ccnc2O1 (centres undefined)	5.22 µM	
NS(=O)(=O)c1ccc(S(=O)(=O)N(CCc2ccccc2)Cc2ccccn2)cc1	< 0.0235 µM	
Cc1ncc(CO)c(/C=N/Nc2ccc(C(F)(F)F)cn2)c1O	1.18 µM	
COc1cccc(/C=N/NC(=O)C(=O)N/N=C/c2cccc(OC)c2O)c1O	40.1 µM	
COc1ccc(N(C)S(=O)(=O)c2cccc(C(=O)NCC3CCCCC3)c2)cc1	48.2 µM	
O=c1c2ccccc2oc2cc(-c3ccc4[nH]ccc4c3)ccc12	1.94 µM	
Cc1ccnc2c1ccc1cccnc12	18.3 µM	
C[C@@H]1CN([C@@H](C)CO)C(=O)Cc2cc(N(C)C)ccc2O[C@@H]1CN(C)Cc1ccccc1		3.78 µM
CCOc1ccc(C(=O)COC(=O)Cc2n[nH]c(=O)c3ccccc23)cc1	2.53 µM	
CC(=O)O[C@H]1C(=O)[C@@]2(C)[C@H]([C@H](OC(=O)c3ccccc3)[C@]3(O)C[C@H](OC(=O)[C@H](O)C(NC(=O)c4ccccc4)c4ccccc4)C(C)=C1C3(C)C)[C@]1(OC(C)=O)CO[C@@H]1C[C@@H]2O (some centres undefined)	3.59 µM	
Cc1cc(C(=O)NNC(=O)c2ccc(Cl)c(S(N)(=O)=O)c2)c(C)o1	6.93 µM	
CCN(c1cccc(C)c1)S(=O)(=O)c1ccc(-c2cc(C)no2)s1	5.94 µM	
COCCOC(=O)c1[nH]c2c(c1C)C(=O)CC(c1cccs1)C2 (centres undefined)	4.16 µM	
COc1cc2c(cc1OC)C(C)N(C(=O)Nc1cc(C)cc(C)c1)CC2 (centres undefined)	3.03 µM	
O=C(CCc1ccccc1)NCC(c1ccco1)N1CCc2ccccc21 (centres undefined)	4.6 µM	
NC(=O)N=Nc1c2[nH]c3ccccc3nc-2c2ccccc12	8.41 µM	
COc1ccc(Nc2nc(-c3sc(C)nc3C)cs2)c(OC)c1	12.3 µM	
NS(=O)(=O)c1ccc(CNc2ccc3ccccc3n2)cc1	> 50 µM	
